According to ChEMBL document CHEMBL1201862, “PubChem BioAssay data set” (2004):
Calls of active or inactive are those of the source.

Columns and labels:
[1] = cells
[2] = HEp-2 cell cytotoxicity, dose response, cytotoxicity control for RSV inhibitor project, HTS (AID 2410); type: functional; conditions: human respiratory syncytial virus
[3] = system: Vero; assay: cells; type: functional, cell-based; conditions: Chlorocebus sabaeus
[4] = cytotoxicity in HEK-293T cells, dose response, cytotoxicity control for TCR NF-kB inhibitor project, luminescence, T-cell screen hits (AID 489026); type: functional, cell-based;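 note: cells exposed to compound about 14 hours before the viability readout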
[5] = target: Heat shock protein HSP 90-alpha (Homo sapiens, UniProt P07900); type: functional, organism-based
[6] = system: Vero; assay: cells; type: functional; conditions: Chlorocebus sabaeus
[7] = target: T1, Sentrin-specific protease 7 (Homo sapiens, UniProt Q9BQF6); type: functional;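 note: Luminescence-based dose-response confirmation of ultra-high-throughput screening hits, measuring inhibition of SENP7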
T1 sequence (Q9BQF6 whole entry): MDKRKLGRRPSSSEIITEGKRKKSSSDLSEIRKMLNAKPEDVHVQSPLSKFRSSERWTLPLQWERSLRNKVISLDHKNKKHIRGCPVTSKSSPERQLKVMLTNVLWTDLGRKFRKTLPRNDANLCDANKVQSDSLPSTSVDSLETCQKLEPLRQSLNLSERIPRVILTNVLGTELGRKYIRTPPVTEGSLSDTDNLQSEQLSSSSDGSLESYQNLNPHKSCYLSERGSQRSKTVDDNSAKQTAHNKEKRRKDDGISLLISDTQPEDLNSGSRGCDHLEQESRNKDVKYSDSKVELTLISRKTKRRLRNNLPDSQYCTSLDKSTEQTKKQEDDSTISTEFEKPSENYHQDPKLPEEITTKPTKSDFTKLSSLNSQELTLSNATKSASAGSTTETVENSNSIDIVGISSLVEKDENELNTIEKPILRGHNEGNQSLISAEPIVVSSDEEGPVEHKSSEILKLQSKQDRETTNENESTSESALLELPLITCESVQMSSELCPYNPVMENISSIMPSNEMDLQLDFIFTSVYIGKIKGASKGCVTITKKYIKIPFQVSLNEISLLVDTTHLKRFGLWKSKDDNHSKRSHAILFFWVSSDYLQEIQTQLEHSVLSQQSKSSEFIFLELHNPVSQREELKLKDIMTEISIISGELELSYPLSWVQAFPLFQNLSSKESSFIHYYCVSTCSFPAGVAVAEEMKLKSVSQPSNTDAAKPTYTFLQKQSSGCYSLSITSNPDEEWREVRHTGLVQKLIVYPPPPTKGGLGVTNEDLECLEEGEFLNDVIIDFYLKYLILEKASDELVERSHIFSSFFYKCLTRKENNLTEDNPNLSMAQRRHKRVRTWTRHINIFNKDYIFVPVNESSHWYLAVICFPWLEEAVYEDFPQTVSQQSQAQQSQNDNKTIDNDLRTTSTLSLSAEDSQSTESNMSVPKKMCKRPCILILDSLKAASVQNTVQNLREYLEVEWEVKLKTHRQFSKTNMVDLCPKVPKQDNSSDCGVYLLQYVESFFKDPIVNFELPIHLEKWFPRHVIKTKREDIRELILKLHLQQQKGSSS

[8] = Vero E6 cell cytotoxicity, dose response, cytotoxicity control for non-replicating M. tuberculosis project, secondary assay (AID 492998); type: functional, VeroE6; conditions: Vero C1008
[9] = target: T2, Sentrin-specific protease 8 (Homo sapiens, UniProt Q96LD8); type: functional;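 note: luminescence read-out of SENP8 inhibition, dose-response confirmation following an ultra-high-throughput screen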
T2 sequence (Q96LD8 whole entry): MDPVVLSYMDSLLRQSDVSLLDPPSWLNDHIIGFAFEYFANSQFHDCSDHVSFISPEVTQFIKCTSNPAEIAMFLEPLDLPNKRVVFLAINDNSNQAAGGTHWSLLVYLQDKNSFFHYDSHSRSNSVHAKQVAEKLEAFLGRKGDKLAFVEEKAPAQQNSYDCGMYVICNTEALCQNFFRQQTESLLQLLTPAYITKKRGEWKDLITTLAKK

[10] = target: T3, Caspase-3 (Homo sapiens, UniProt P42574); type: functional;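 note: Dose-response selectivity test against caspase-3 for candidate inhibitors of sentrin-specific proteases (SENPs)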
T3 sequence (P42574 whole entry): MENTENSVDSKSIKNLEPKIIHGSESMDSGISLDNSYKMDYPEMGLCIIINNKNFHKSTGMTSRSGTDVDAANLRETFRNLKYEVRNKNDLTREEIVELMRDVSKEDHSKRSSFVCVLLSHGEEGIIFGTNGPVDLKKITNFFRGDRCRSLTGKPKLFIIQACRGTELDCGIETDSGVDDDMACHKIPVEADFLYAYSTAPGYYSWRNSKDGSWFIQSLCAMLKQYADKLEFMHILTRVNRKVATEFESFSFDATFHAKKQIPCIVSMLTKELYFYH

[11] = THP-1 cell cytotoxicity, dose response, cytotoxicity control for non-replicating M. tuberculosis project (AID 489025); type: functional
[12] = system: INS1; assay: beta cell apoptosis inhibitors, cytokine rescue, dose response, luminescence, retest (AID 449756); type: functional, cell-based; conditions: Rattus norvegicus;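 note: cell death triggered by IL-1 beta plus TNF-alpha plus IFN-gamma mixture; protective hits raise ATP signal compared with cytokine alone wells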
[13] = cells; type: functional
[14] = target: T4, Sentrin-specific protease 6 (Homo sapiens, UniProt Q9GZR1); type: functional;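 note: Luminescence-based dose-response confirmatory assay of SENP6 inhibition, following up an ultra-high-throughput screen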
T4 sequence (Q9GZR1 whole entry): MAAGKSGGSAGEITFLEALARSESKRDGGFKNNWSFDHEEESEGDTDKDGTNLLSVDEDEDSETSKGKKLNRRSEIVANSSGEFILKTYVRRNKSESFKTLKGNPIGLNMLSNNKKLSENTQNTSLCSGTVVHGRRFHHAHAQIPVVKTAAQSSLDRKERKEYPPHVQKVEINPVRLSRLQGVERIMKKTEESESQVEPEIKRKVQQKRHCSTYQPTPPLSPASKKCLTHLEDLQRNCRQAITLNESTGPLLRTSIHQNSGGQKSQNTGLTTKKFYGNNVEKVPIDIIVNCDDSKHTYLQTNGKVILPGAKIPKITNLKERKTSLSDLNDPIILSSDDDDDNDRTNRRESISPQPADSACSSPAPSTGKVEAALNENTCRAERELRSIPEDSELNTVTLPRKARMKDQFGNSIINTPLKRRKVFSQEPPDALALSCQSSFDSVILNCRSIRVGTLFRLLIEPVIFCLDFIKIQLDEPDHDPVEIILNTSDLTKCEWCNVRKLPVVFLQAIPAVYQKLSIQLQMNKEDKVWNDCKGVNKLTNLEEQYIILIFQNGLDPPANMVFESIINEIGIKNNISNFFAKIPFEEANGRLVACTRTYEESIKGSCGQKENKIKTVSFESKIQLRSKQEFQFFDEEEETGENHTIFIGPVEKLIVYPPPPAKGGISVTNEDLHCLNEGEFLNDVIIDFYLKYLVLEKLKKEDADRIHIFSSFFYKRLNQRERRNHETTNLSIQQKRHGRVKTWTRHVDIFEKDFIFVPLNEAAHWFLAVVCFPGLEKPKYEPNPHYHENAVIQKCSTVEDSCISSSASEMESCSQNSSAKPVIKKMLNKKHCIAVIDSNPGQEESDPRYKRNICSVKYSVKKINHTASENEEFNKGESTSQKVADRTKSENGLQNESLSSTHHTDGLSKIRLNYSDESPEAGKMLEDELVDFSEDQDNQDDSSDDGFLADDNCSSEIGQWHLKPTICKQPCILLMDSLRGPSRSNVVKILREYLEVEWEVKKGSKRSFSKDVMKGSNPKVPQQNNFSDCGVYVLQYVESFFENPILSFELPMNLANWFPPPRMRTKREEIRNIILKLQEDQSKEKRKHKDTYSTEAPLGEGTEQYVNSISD

[15] = Luminescence Cell-Based Dose Retest to Confirm Inhibitors of Cancer Stem Cells. [Related pubchem assays (depositor defined):AID2717, AID2721]; type: functional; conditions: Homo sapiens
[16] = system: Streptococcus; assay: Group A Streptococcus viability loss, dose response, counter-screen for streptokinase expression inhibitor project, luminescence, BacTiterGlo (AID 1915); type: functional, organism-based;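 note: potency for reduction of bacterial viability or growth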
[17] = system: Streptococcus sp. 'group A'; assay: growth inhibition of control SK(-) GAS strain, dose response, counter-screen for streptokinase expression inhibitor project, luminescence, kanamycin, BacTiterGlo, confirmation (AID 1900); type: functional, organism-based
[18] = microbe, parasite or virus in culture; type: functional; conditions: Mycobacterium tuberculosis

For `COc1ccccc1C1CCCN1Cc1nc(-c2ccc(C)s2)oc1C` (configuration not stated), the IC50 [1] was 33.3 µM (active), the CC50 [2] was 20.2 µM (active) and the IC50 [3] was 10.9 µM (active).
With `O=S(=O)(Nc1ccc(F)cc1Cl)c1ccc(-c2cnc(C3CC3)o2)cc1` the IC50 [4] was > 80 µM (inactive).
In the case of `Cc1cccc(NC(S)=NCC23C=CC(O2)C2C(=O)N(c4ccc(Cl)cc4)C(=O)C23)c1` (configuration not stated), the AC50 [5] is reported as 15 µM (active).
For `O=C(CCN1C(=O)/C(=C/c2ccc(F)cc2)SC1=S)NCCc1ccc(O)cc1`, the CC50 [6] was 24.1 µM (active) and the IC50 [3] was > 25 µM (active).
For `O=C(Nc1ccn(Cc2ccccc2F)n1)c1ccc(COc2ccc(Br)cc2)cc1`, the IC50 [4] was > 80 µM (inactive).
For `O=C1C=C(Nc2ccc(F)cc2)c2ccccc2C1=O`, the IC50 [7] was 9.46 µM (active), the CC50 [8] was 9.15 µM (active) and the IC50 [9] was 4.81 µM (active). For the same compound, the IC50 [10] was 13.9 µM (active), the CC50 [11] was 19 µM (active) and the AC50 [12] was 3.06 µM (active). For the same compound, the IC50 [13] was 4.25 µM (active), the IC50 [14] was 2.94 µM (active) and the AC50 [15] was 3.19 µM (active).
For `OC(Cn1cncn1)(c1ccc(F)cc1)c1ccc(Cl)cc1` (configuration not stated), the AC50 [5] was < 0.195 µM (active).
In the case of `CC(C)c1ccc(OCC(=O)NNC(=S)NC(=O)c2ccco2)c(Br)c1`, the EC50 [16] is reported as 0.141 µM (active), the CC50 [6] is reported as > 25 µM (active) and the IC50 [3] is reported as > 25 µM (active). The EC50 [17] was < 0.06 µM (active).
In the case of `Cc1cc(/C=C/c2ccc3cc(N(C)C)ccc3[n+]2C)c(C)n1-c1ccccc1`, the AC50 [5] is reported as 5.91 µM (active) and the CC50 [18] is reported as 2.28 µM (active).
For `CCCc1c(NC(=O)Nc2ccc(Cl)cc2Cl)cnn1-c1ccccc1`, the CC50 [6] was > 25 µM (active) and the IC50 [3] was 17.9 µM (active).
In the case of `CCCCCCCCCC(=O)N[C@@H]1c2cc(OC)c(OC)cc2C[C@H]1OCc1ccccc1`, the IC50 [3] is reported as > 25 µM (active).
